Experiment [1] concerns MOG-specific T-cells (spleen cells from MOG T-cell receptor transgenic (2D2) mice). Briefly: Proliferation assay, 3H-thymidine incorporation. As to conditions: for T-cell proliferation (proliferative response): free peptide or 500 nm silica NPs, up to 8 ug/ml. The format is cell-based, mouse. Here is the method:
Spleens were dissected from MOG T-cell receptor transgenic mice expressing the transgenic V3.2α/Vβ11 T-cell receptor specific for MOG35-55 peptide ([…]) in the context of 1-A^b. Single cell suspensions were prepared in complete RPMI medium containing 10% heat inactivated FBS, 2 mM L-glutamine, 100 U/ml penicillin, 100 μg/ml streptomycin, 50 μM 2-mercaptoethanol and 1 mM sodium pyruvate (Sigma). Following red blood cell lysis, splenocytes were seeded in triplicate in 96-well, flat bottom microtiter plates (Nunc) at a concentration of 2.5×10^5 cells per well. Splenocytes were cultured in medium alone or in the presence of increasing doses of MOG35-55 or nanoparticles. Cells were incubated at 37° C. for 72 hr with the addition of 1 μCi/well [3H]-thymidine (Perkin Elmer) for the last 18 hr of culture. Cells were harvested onto filter mats (Perkin Elmer) and incorporated radioactive nucleic acids counted using a Top Count NXT Scintillation Counter (Packard Biosciences).
Background: Dividing cells build labelled thymidine or BrdU into new DNA.

The subject of experiment [2] is NOD/Lt EAE mice. Description: Histological analysis of CNS tissue of NOD/Lt EAE mice. The format is in vivo, mouse. Also noted: key to Axonal damage: 0 = no axonal pathology, 3 = severe axonal pathology; key to Demyelination score: 0 = no demyelination, 3 = severe demyelination. As to conditions: 200 nm silica peptide nanoparticles, mean ± SEM. Here is the method: (§1) For histological analysis of CNS tissue, the brain and spinal cord were dissected from mice then fixed in 10% formalin (Sigma) for 24-48 h. Tissue was then processed and embedded in paraffin wax. Serial sections (5 μm) were cut from paraffin-embedded tissues and stained with hematoxylin and eosin, luxol fast blue and Bielschowsky silver impregnation to assess inflammation, demyelination and axonal damage, respectively. Sections were scored blind for semi-quantitative histological analysis of inflammation as follows: 0, no inflammation: 1, cellular infiltrate only in the perivascular areas and meninges; 2, mild cellular infiltrate in parenchyma: 3, moderate cellular infiltrate in parenchyma; 4, severe cellular infiltrate in parenchyma. Demyelination and axonal pathology were assessed by pale staining and scored blind as follows: 0, no demyelination/axonal pathology: 1, mild demyelination/axonal pathology; 2, moderate demyelination-axonal pathology; 3, severe demyelination/axonal pathology.

The subject of experiment [3] is C57Bl/6 EAE mice. Description: Histological analysis of CNS tissue of C57Bl/6 EAE mice. As to conditions: for Axonal damage / Demyelination score / Inflammation score: mean ± SEM; for CNS inflammation, demyelination and axonal damage: 500 nm NPs, versus bare NPs or scrambled MOG37-52 NPs. Details: key to Axonal damage: 0 = no axonal pathology, 3 = severe axonal pathology; key to Demyelination score: 0 = no demyelination, 3 = severe demyelination. The format is in vivo, mouse. The method, then:
as §1

In experiment [4] the test system is C57Bl/6 EAE mice. Briefly: EAE induction and clinical scoring, MOG35-55-induced EAE in C57Bl/6 mice (chronic progressive model). The format is in vivo, mouse. As to conditions: for Disease incidence / Mortality: fraction of total; for Cumulative score / Day disease onset / Maximum score / Score at termination: mean ± SEM; for daily mean clinical score compared to controls: treatment prior to induction of EAE.

For experiment [5], the system named is NOD/Lt EAE mice. Briefly: EAE induction and clinical scoring, recombinant mouse MOG-induced EAE in NOD/Lt mice (relapsing remitting model). The format is in vivo. As to conditions: for Disease incidence / Mortality / Cumulative score / Day disease onset / Maximum score / Score at termination: 200 nm silica peptide nanoparticles, NOD/Lt; for Disease incidence / Mortality: fraction of total; for Cumulative score / Day disease onset / Maximum score / Score at termination: mean ± SEM.

Setting [6] is: 200 nm silica peptide nanoparticles.
The mark [7] stands for this setting: 500 nm silica peptide nanoparticles.
Setting [8] is: 500 nm silica peptide nanoparticles, i.v. day -7 and -1.

Entries after “also recorded” stand apart in the source; their conditions may differ. Non-standard residues stand in square brackets, D forms with d. No end group written: not given here. βF = beta phenylalanine (beta-amino acid)

Take “MEVGWYRSPFSRVVHLYRNGK [MOG35-55, encephalitogenic mouse MOG peptide, free peptide, reference compound]”: in experiment [1], the “T-cell proliferation (proliferative response)” value (shortened to “T-cell proliferation”) is listed as “robust proliferation response”.

In the experiment with NOD/Lt EAE mice [2], “MOG37-52: silica nanoparticles coated with mouse MOG37-52 peptide VGWYRSPFSRVVHLYR; 500 nm in Table 1, 200 nm in Tables 2 and 3” showed an Axonal damage of 2.833 ± 0.1667, a Demyelination score of 2.917 ± 0.0833 and an Inflammation score of 4.167 ± 0.1667. For the same substance, in the experiment with C57Bl/6 EAE mice [3] (200 nm silica nanoparticles), the “axonal damage compared to bear, scrambled MOG37-52 or ovalbumin nanoparticles” value was “significantly reduced axonal damage” and the “inflammation compared to bear nanoparticles” value is on record as “significantly reduced inflammation”. In addition, in the experiment with C57Bl/6 EAE mice [3] (setting [6]), the Axonal damage is listed as 1.35 ± 0.1833 # ^∧∧∧, the Demyelination score is listed as 1.85 ± 0.2242 and the Inflammation score is 2.275 ± 0.3772^∧. Also, the “CNS inflammation, demyelination and axonal damage” value in the experiment on C57Bl/6 EAE mice [3] was “reduction in CNS inflammation, demyelination and axonal damage; also recorded: significantly reduced inflammation, demyelination and axonal damage”. Besides, in the experiment on C57Bl/6 EAE mice [3] (setting [7]), the Axonal damage is listed as 1.208 ± 0.2275 ^∧∧, the Demyelination score is on record as 0.833 ± 0.8333 ^** ∧∧∧∧ and the Inflammation score is given as 1.542 ± 0.2275 ^* ∧∧. In addition, the “effect on clinical disease” value with C57Bl/6 EAE mice [4] (200 nm NPs, C57BL/6 mice) is reported as “significant effect on clinical disease”. In the experiment on C57Bl/6 EAE mice [4] (setting [6]), the Disease incidence was 10/10, the Mortality was 0/10, the Cumulative score is given as 33.05 ± 2.086 ∧∧∧∧ and the Day disease onset was determined as 15.70 ± 1.334. Besides, in the experiment on C57Bl/6 EAE mice [4] (setting [6]), the Maximum score is recorded as 2.50 ± 0.1667^∧ and the Score at termination is 1.45 ± 0.2930^∧∧∧. Also, the “daily mean clinical score compared to controls” value with C57Bl/6 EAE mice [4] (500 nm NPs) was “significant reduction”. For the same substance, the Disease incidence with C57Bl/6 EAE mice [4] (setting [8]) is given as 6/6. Moreover, in the experiment on C57Bl/6 EAE mice [4] (setting [7]), the Mortality is recorded as 0/6, the Cumulative score is listed as 26.00 ± 8.039 ^**, the Day disease onset was 17.17 ± 2.151 and the Maximum score was 2.00 ± 0.3873. The same substance registered a Score at termination in the experiment on C57Bl/6 EAE mice [4] (setting [7]) of 1.083 ± 0.3270. In addition, the proliferative response entry in experiment [1] (200 nm NPs) is reported as “did not induce a proliferative response that was above background levels”. The “T-cell proliferation” value in experiment [1] is “comparable proliferative response; also recorded: comparable to the MOG37-52 peptide”. Also, the disease severity result in the experiment on NOD/Lt EAE mice [5] (200 nm NPs, NOD/Lt mice) is reported as “significantly reduced disease severity”. Besides, in the experiment with NOD/Lt EAE mice [5], the Disease incidence was 6/6, the Mortality was 0/6, the Cumulative score is listed as 30.50 ± 3.266^∧∧ ^## and the Day disease onset is listed as 17.33 ± 2.23. In the experiment on NOD/Lt EAE mice [5], the Maximum score is reported as 2.667 ± 0.1667^∧ and the Score at termination was 2.25 ± 0.2814^∧.

Take “MOG44BF: 500 nm silica nanoparticles coated with MOG44βF peptide VGWYRSPβFSRVVHLYR (VGWYRSP[βF]SRVVHLYR; also: coated on 500 nm silica nanoparticles)”: the “CNS inflammation, demyelination and axonal damage” value with C57Bl/6 EAE mice [3] was “reduction in CNS inflammation, demyelination and axonal damage; also recorded: significantly reduced inflammation, demyelination and axonal damage”. Further, in the experiment on C57Bl/6 EAE mice [3] (setting [7]), the Axonal damage is listed as 0.5833 ± 0.2007 ∧∧∧∧, the Demyelination score was 0.375 ± 0.08539^### *** ∧∧∧∧ and the Inflammation score is 0.7917 ± 0.2694^### *** ∧∧∧∧. Also, in the experiment on C57Bl/6 EAE mice [4] (500 nm NPs), the “therapeutic effect compared to MOG37-52 coated NPs (onset, disease severity)” value is “more significant therapeutic effect” and the “daily mean clinical score compared to controls” value is “significant reduction”. The Disease incidence in the experiment on C57Bl/6 EAE mice [4] (setting [8]) was 2/6. Further, in the experiment on C57Bl/6 EAE mice [4] (setting [7]), the Mortality is 0/6, the Cumulative score is reported as 5.417 ± 3.967 ^**** ∧∧∧, the Day disease onset is recorded as 29.17 ± 3.710^++ ^### *** ∧∧∧ and the Maximum score was 0.4167 ± 0.3270^++ ^*** ∧∧∧. Also, the Score at termination in the experiment with C57Bl/6 EAE mice [4] (setting [7]) is recorded as 0.1667 ± 0.1054 # ^∧. In addition, in experiment [1] (listed as MOG440F), the “T-cell proliferation” value is on record as “not capable of stimulating T-cell proliferation”. Further, in experiment [1] (listed as MOG441F), the “T-cell proliferation” value is “did not induce a robust proliferative response”.

“ScrMOG37-52: control silica nanoparticles (500 nm or 200 nm) coated with scrambled MOG37-52 peptide RSVLVPSRWRHFYGVY [reference compound]”: in the experiment on NOD/Lt EAE mice [2], the Axonal damage is recorded as 2.583 ± 0.2007, the Demyelination score worked out at 2.583 ± 0.2007 and the Inflammation score was determined as 3.583 ± 0.2713. In addition, in the experiment with C57Bl/6 EAE mice [3] (setting [6]), the Axonal damage was found to be 2.188 ± 0.2302, the Demyelination score was 2.063 ± 0.2745 and the Inflammation score came to 2.688 ± 0.3889. In the experiment with C57Bl/6 EAE mice [3] (setting [7]), this substance had an Axonal damage of 2.367 ± 0.2472, a Demyelination score of 2.333 ± 0.2108 and an Inflammation score of 2.917 ± 0.2007. Besides, in the experiment with C57Bl/6 EAE mice [4] (setting [6]), the Disease incidence is recorded as 8/8, the Mortality is 0/8, the Cumulative score is recorded as 52.50 ± 4.621 and the Day disease onset stood at 13.38 ± 0.9051. For the same substance, in the experiment on C57Bl/6 EAE mice [4] (setting [6]), the Maximum score is recorded as 3.313 ± 0.2825 and the Score at termination is listed as 2.313 ± 0.4525. Also, the Disease incidence with C57Bl/6 EAE mice [4] (setting [8]) is 6/6. Further, in the experiment on C57Bl/6 EAE mice [4] (setting [7]), the Mortality is given as 0/6, the Cumulative score was 52.5 ± 2.053, the Day disease onset is 12.67 ± 0.4216 and the Maximum score came out at 3.00 ± 0.0000. In the experiment with C57Bl/6 EAE mice [4] (setting [7]), the Score at termination is reported as 1.833 ± 0.2108. Also, in experiment [1], the “T-cell proliferation” value is on record as “not capable of stimulating T-cell proliferation”. Also, in the experiment on NOD/Lt EAE mice [5], the Disease incidence is 6/6, the Mortality is reported as 0/6, the Cumulative score is listed as 58.5 ± 2.772 and the Day disease onset was determined as 13.00 ± 0.4472. In addition, in the experiment with NOD/Lt EAE mice [5], the Maximum score is recorded as 3.583 ± 0.3005 and the Score at termination was 3.333 ± 0.3333.

(Values after patent US20200246441A1, “COMPOSITIONS AND METHODS FOR AUTOIMMUNE DISEASE TREATMENT” (AMRITA VISHWA VIDYAPEETHAM, priority 2016, published 2020).)
